Source: US20230255906A1, “Targeting Serpin B9 in Cancer” (The Brigham and Women`s Hospital, Inc., priority 2020, published 2023)

Tests used:
MBP-Sb9 = target: T1, MBP-Sb9 (Homo sapiens, UniProt P50453); assay: Saturation-Transfer Difference (STD) NMR assay; assay type: binding
T1 construct: made in house
T1 sequence (P50453 2-376): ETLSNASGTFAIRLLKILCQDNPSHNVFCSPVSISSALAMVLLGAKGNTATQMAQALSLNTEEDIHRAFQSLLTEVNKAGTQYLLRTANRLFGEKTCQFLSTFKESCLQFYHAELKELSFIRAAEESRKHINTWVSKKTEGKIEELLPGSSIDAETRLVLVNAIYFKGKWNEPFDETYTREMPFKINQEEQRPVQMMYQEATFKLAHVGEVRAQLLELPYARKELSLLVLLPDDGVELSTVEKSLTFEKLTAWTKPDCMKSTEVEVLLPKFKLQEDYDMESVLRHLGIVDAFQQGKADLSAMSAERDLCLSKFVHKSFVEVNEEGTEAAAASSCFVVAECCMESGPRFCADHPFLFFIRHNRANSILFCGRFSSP
Text: The Saturation-Transfer Difference (STD) NMR assay was used to evaluate the binding of the compound of Formula (III) to Sb9. […] The saturation period was 3.0 seconds with irradiation at 0 ppm (on-resonance excitation) and −20 ppm (off-resonance excitation). The number of scans was 160 for the on and off-resonance spectra, respectively. Spectra were processed using Topspin software and apodized with exponential multiplication with 1.0 Hz line-broadening.
The Saturation-Transfer Difference (STD) NMR assay was used to evaluate the binding of the compounds of Formulas (I) and (II) to Sb9. […] The saturation period was 3.0 seconds with irradiation at 0.7 ppm (on-resonance excitation) and 20 ppm (off-resonance excitation). The number of scans was 800. The spectra were processed using Topspin software with 1.0 Hz line-broadening.
The Saturation-Transfer Difference (STD) NMR assay as described herein was used to evaluate the binding of the compound of Formula (III) to Sb9.

[1] = system: B16-WT mouse melanoma tumors; assay: B16 melanoma tumor model in C57BL/6 mice; assay type: in vivo
Description: Mice were anesthetized with isoflurane, and tumor cell lines (B16, A375, and 4T1) were gently injected subcutaneously in the flanks or mammary glands of mice. One hundred thousand cells (1×10^5 cells) were injected per mouse for most of the experiments. However, twenty-five thousand cells (25×10^3 cells) were injected per mouse for the experiments using the compound of Formula (III). Upon 4 hrs post-implantation, 300 μg of the compound of Formula (III) was administered twice a day intraperitoneally for 14 days. Tumor growth was monitored three times per week by digital caliper (Fisherbrand™ Traceable™ Digital Calipers).
The anti-tumor activity of the compound of Formula (III) in vivo was assessed. […] Treatment with the compound of Formula (III) increased the median survival time (MST) of mice bearing B 16-WT mouse melanoma tumors and receiving treatment with the compound of Formula (III) as compared to mice bearing B16-WT melanoma tumors and not receiving treatment (MST=39 days vs MST=26 days, respectively) (FIG. 51B). Next, the effect of the compound of Formula (III) on tumor immunity was examined.
The efficacy of the compound of Formula (III) was assessed in C57BL/6J mice (FIG. 18). B16 mouse melanoma cells were implanted subcutaneously into the right flanks of C57BL/6J mice, and the mice were randomized into three groups: (1) no treatment (control), (2) treatment with anti-PD1, and (3) treatment with Formula (III). The mice in the anti-PD1 group received 200 μg of anti-PD1 iv every 3 days, and those in the Formula (III) group received 300 μg of Formula (III) twice a day consecutively for 14 days.
A survival study using the compound of Formula (IV) in mice harboring B16 melanoma was performed. Mice implanted with B16 tumors were treated with the compound of Formula (IV) (n=8) and compared to a control group having B16 tumors and not receiving treatment with the compound of Formula (IV) (n=8).

LAMP1 = LAMP1 / lysosome fluorescence micrographs; assay type: cell-based
Text: FIG. 4H. […] DAPI was used to counterstain the cell nuclei. Scale bar: 10 μm.
Lysosomes have a pH of 4 and are the most acidic compartment within cells. Therefore, it was hypothesized that lysosomes contain an environment that is conducive for the binding between the compound of Formula (III) and Sb9. Both Sb9 and GrB were co-localized in the lysosomes of B16 melanoma cells (FIG. 4F).

[2] = 17 days post-implantation, flow cytometry

## O=C(O)c1ccc2ncoc2c1 [Formula (III), 1,3-benzoxazole-6-carboxylic acid]
MBP-Sb9; 420 μM compound, 45 μM Sb9 protein, PBS pH 7.0, 25° C.
  binding to MBP-Sb9 by STD NMR: confirmed the binding activity
MBP-Sb9; 450 μM compound, 45 μM Sb9, various pH values
  pH dependence of binding to MBP-Sb9 by STD NMR: enhanced significantly at lower pH
[1]; 17 days post-implantation
  level of effector IFNγ+ CD4+ cells in TME: increased level
  level of immunosuppressive IL10+CD4+ and IL10+CD8+ cells in TME: decreased level
[1]; [2]
  levels of immunosuppressive Tregs, TAMs, and MDSCs in melanoma vs control: significantly lower
  populations of CD44+ CD62L− (effector memory) CD8+, GrB+ CD8+ and IFNγ+ CD8+ in melanoma vs control: significantly higher
[1]; B16-WT tumors, 300 μg i.p. bid for 14 days (FIG. 5B)
  median survival time (MST): 39 days
[1]; C57BL/6J, FIG. 18, Formula (III) 300 μg twice a day 14 days, anti-PD1 200 μg iv every 3 days
  median survival time (MST): 36 days
[1]; C57BL/6 mice, 300 μg i.p. bid for 14 days
  reduction of size of B16 tumors vs control: 3.7 fold
LAMP1
  LAMP1 expression and lysosome areas: significantly increased the LAMP1 expressions
